Active and inactive are the calls of the source.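 Rule for the calls: active = STAT1 reporter activators whose half-maximal activating concentration EC50 is 10 µM or lower; inactive = EC50 above 10 µM or no activation.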

The test system of the first experiment is NIH 3T3 STAT1 luciferase reporter, luminescence. Nature of the experiment: STAT1 reporter activators, potency curves, dose response, counter-screen for STAT3 activator project, cell-based, NIH 3T3, luciferase luminescence (AID 1406).
Conditions: not given
(In general: Counterscreens check selectivity or assay interference.)
One may read the EC50 as the concentration giving half of the maximal effect. Take `CC1=NN(c2ccccc2)C(=O)/C1=C/c1c(O)[nH]c(=O)[nH]c1=O`: the EC50 was > 55.7 µM (inactive).

The same experiment, now with this note: cells stimulated with IFN-gamma at EC80.
`O=C(COc1ccccc1Cl)Nc1cc(Cl)ccc1O`: the EC50 was > 55.7 µM (inactive).

Consider `CCC(C(=O)Nc1ccccc1OC)n1c(C(=O)OC)cc2ccsc21` (configuration not stated), for which the EC50 is > 55.7 µM (inactive). On the same count and under the same terms, under `NC(=O)CSc1c[nH]c2ccccc12` stands > 55.7 µM (inactive); under `COc1ccc(C)cc1NC(=O)c1[nH]c(C)c(C(C)=O)c1C`, > 55.7 µM (inactive). Take `Nc1nnc(Cc2c[nH]c3ccccc23)s1`: the EC50 is > 55.7 µM (inactive). As to `O=C(O)C(Cc1c[nH]c2ccccc12)N1Cc2ccccc2C1=O` (configuration not stated), the EC50 is > 55.7 µM (inactive). For the compound `COc1ccc(Cl)cc1NC(=O)Nc1ccc(Br)cn1`, the EC50 was > 55.7 µM (inactive). With `NNc1ncnc2sc3c(c12)CCC3`, the EC50 was > 55.7 µM (inactive).

In the case of `O=C(Cc1cnc2ncnn2c1)N1CCc2c([nH]c3ccccc23)C1c1ccccc1F` (configuration not stated), the EC50 is > 55.7 µM (inactive). `CC(=O)N1N=C(c2ccccc2O)OC1(C)CC(=O)Nc1ccccc1` (configuration not stated): the EC50 was > 55.7 µM (inactive). Turning to `Cc1[nH]n(-c2ccccc2)c(=O)c1/C=C1/C=c2ccccc2=N1`, the EC50 was > 55.7 µM (inactive).

As for `CC(C)CC(=O)NC(=S)Nc1nc(-c2ccccc2)cs1`, the EC50 is > 55.7 µM (inactive). For `Cc1cc(C)n(-c2nnc3n2N=C(c2c[nH]c4ccccc24)CS3)n1`, the EC50 was > 55.7 µM (inactive).

For `COc1ccc(-c2nnc(Nc3nc4c(OC)cccc4s3)o2)cc1`, the EC50 was > 55.7 µM (inactive). Consider `COc1ccc(Cl)cc1-c1nc(-c2ccc(Br)o2)no1`, for which the EC50 was > 55.7 µM (inactive). Consider `CCn1c(C(=O)Nc2ccsc2C(=O)OC)cc2sc(Cl)cc21`, for which the EC50 is > 55.7 µM (inactive). For the compound `Cc1nc2c(n1C1CCCCC1)C(=O)c1ccccc1C2=O`, the EC50 is > 55.7 µM (inactive).

Turning to `COc1ccccc1-c1nnc(SCC(=O)NC2CCCCC2)o1`, the EC50 was > 55.7 µM (inactive). Take `Nc1ccccc1Sc1nc2ccccc2[nH]1`: the EC50 is > 55.7 µM (inactive). With `CN1C(=O)c2ccccc2C(C(=O)NCCCN2CCCC2=O)C1c1c[nH]c2ccccc12` (configuration not stated), the EC50 is > 55.7 µM (inactive).

Regarding `Cc1noc(/C=C/N(C)C)c1S(=O)(=O)N1CCc2ccccc21`, the EC50 was > 55.7 µM (inactive). The same measure, in the same setting: in the case of `COc1cc(NC(=O)c2cc(C3CC3)on2)c(OC)cc1Cl` it was > 55.7 µM (inactive); in that of `COc1ccc(Br)cc1C(=O)Nc1cccc(C)c1`, > 55.7 µM (inactive); in that of `Cn1nc(-c2ccc(Cl)cc2)c2cc(C(=O)NCCN3CCOCC3)sc21`, > 55.7 µM (inactive). As for `COc1ccccc1C(=O)NNC(=O)c1ccc(NC(=O)C(C)C)cc1`, the EC50 was > 55.7 µM (inactive). Turning to `CC1Cc2ccccc2N1Cc1cc(=O)n2ccsc2n1` (configuration not stated), the EC50 is > 55.7 µM (inactive). For the compound `CCOc1ccccc1CN1CCN(Cc2cc3ccccc3[nH]2)CC1CCO` (configuration not stated), the EC50 was > 55.7 µM (inactive).

As to `O=C(CCN1CCOCC1)N1CCc2c([nH]c3ccccc23)C1c1cccc(Cl)c1` (configuration not stated), the EC50 was > 55.7 µM (inactive). `Cn1nc(-c2ccc(Cl)cc2)c2cc(C(=O)NCCCN3CCOCC3)sc21`: the EC50 was > 55.7 µM (inactive). Still for that read-out and setting: in the case of `CCOC(=O)C1(CC2CCCCO2)CCN(Cc2cc3ccccc3[nH]2)CC1` (configuration not stated) it was > 55.7 µM (inactive); in that of `COc1cc(NC(=O)c2cc(C(C)C)on2)c(OC)cc1Cl`, > 55.7 µM (inactive).

For the compound `O=C(Nc1nnc(-c2ccccc2Cl)o1)c1nc2ccccc2s1`, the EC50 was > 55.7 µM (inactive).

With `O=C(CCCSc1nc2ccccc2s1)NCc1ccco1`, the EC50 was > 55.7 µM (inactive). As to `CCN1CCN(C(=O)c2cc3c(-c4ccc(Cl)cc4)nn(C)c3s2)CC1`, the EC50 was > 55.7 µM (inactive). For `CN1CCN(CCCNC(=O)c2cc3c(-c4ccc(Cl)cc4)nn(C)c3s2)CC1`, the EC50 was > 55.7 µM (inactive). Consider `Cn1c(CNc2ccccc2O)nc2ccccc21`, for which the EC50 is > 55.7 µM (inactive). `O=C(Nc1ccccc1O)c1csc2c1CCCC2`: the EC50 was > 55.7 µM (inactive). Consider `CC(=O)NCCC(=O)N1CCc2c([nH]c3ccccc23)C1c1cccc(Cl)c1` (configuration not stated), for which the EC50 is > 55.7 µM (inactive).

On to `Cc1ccccc1C1c2[nH]c3ccccc3c2CCN1C(=O)c1ccc(=O)n(C)n1` (configuration not stated), for which the EC50 was > 55.7 µM (inactive).

Regarding `COC(=O)c1sccc1NC(=O)c1cc2c(s1)CCCC2`, the EC50 is > 55.7 µM (inactive). Consider `CN1C(=O)/C(=C\c2cc(Br)cs2)c2ccccc21`, for which the EC50 is > 55.7 µM (inactive). Same read-out and setting: under `Nc1nc(-c2ccc(Cl)cc2)nn1C(=O)c1cccs1` stands > 55.7 µM (inactive). Same read-out and setting: under `N#Cc1cn(CC(=O)O)c2ccccc12` stands > 55.7 µM (inactive); under `Cc1nc2ccccc2cc1O`, > 55.7 µM (inactive). As to `CC(C)CC1c2[nH]c3ccccc3c2CCN1C(=O)CCC(=O)N(C)C` (configuration not stated), the EC50 was > 55.7 µM (inactive). Consider `CCC(=O)NCCSc1c[nH]c2ccccc12`, for which the EC50 is > 55.7 µM (inactive). For the compound `COC(=O)c1sccc1NC(=O)c1ccc(Br)s1`, the EC50 is > 55.7 µM (inactive). Take `COCCNC(=O)c1cc2c(-c3ccc(Cl)cc3)nn(C)c2s1`: the EC50 was > 55.7 µM (inactive). For `CCCSc1nnc(Sc2nnnn2-c2ccccc2)s1`, the EC50 was > 55.7 µM (inactive). Regarding `O=C(c1cccnc1)N1CCc2ccccc21`, the EC50 was > 55.7 µM (inactive). Turning to `O=C(Cc1c[nH]c2ccccc12)Nc1nc2ccccc2[nH]1`, the EC50 is > 55.7 µM (inactive).

With `CC(=O)n1cc(Nc2ccc([N+](=O)[O-])cc2)c2ccccc21`, the EC50 is > 55.7 µM (inactive). Same read-out and setting: in the case of `Cc1cc(-c2ccc(Cl)cc2)c(C#N)c(N)n1` it was > 55.7 µM (inactive); in that of `COc1ccccc1C(=O)Nc1cc(Cl)ccc1O`, > 55.7 µM (inactive); in that of `COCCNC(=O)C(=O)NNC(=O)c1ccccc1OC`, > 55.7 µM (inactive). Turning to `CCOC(=O)c1sc(NCc2ccco2)c(-c2nc3ccccc3s2)c1N`, the EC50 is > 55.7 µM (inactive). For `COc1cccc2sc(Nc3nnc(-c4ccc(F)cc4)o3)nc12`, the EC50 was > 55.7 µM (inactive). For the compound `CCOc1ccc(CN2CCN(Cc3cc4ccccc4[nH]3)CC2CCO)cc1` (configuration not stated), the EC50 is > 55.7 µM (inactive). Still for that read-out and setting: under `O=C(Cc1c[nH]c2ccccc12)Nc1nnc(C2CC2)s1` stands > 55.7 µM (inactive); under `COC(=O)NNC(=O)c1ccccc1OC`, > 55.7 µM (inactive); under `CN1N=C(C(=O)N2CCc3c([nH]c4ccccc34)C2c2c(F)cccc2Cl)CCC1=O` (configuration not stated), > 55.7 µM (inactive). For the compound `CCN(CC)S(=O)(=O)c1ccc(-c2nnc3sc4cccc(C)c4n23)cc1`, the EC50 is > 55.7 µM (inactive). Take `O=C(C1CCCN(S(=O)(=O)c2cccc3cccnc23)C1)N1CCc2ccccc21` (configuration not stated): the EC50 was > 55.7 µM (inactive). On to `COCc1cc(C)nc2sc(C(=O)NN)c(-n3cccc3)c12`, for which the EC50 is > 55.7 µM (inactive). Consider `CCCc1cc(C(=O)Nc2cc(OC)c(Cl)cc2OC)no1`, for which the EC50 was > 55.7 µM (inactive). For `CC(=O)NCCC(=O)N1CCc2c([nH]c3ccccc23)C1c1cccc(C)c1` (configuration not stated), the EC50 was > 55.7 µM (inactive). Still for that read-out and setting: in the case of `COCc1cc(=O)n2c(-c3ccccc3OC)n[nH]c2n1` it was > 55.7 µM (inactive). On the same count and under the same terms, in the case of `CN1CCN(C(=O)CNc2ccc(C(F)(F)F)cc2[N+](=O)[O-])CC1` it was > 55.7 µM (inactive).

In the case of `Cc1nn(-c2ccc(Cl)cc2)c(N)c1C(O)(CSc1nccn1C)C(F)(F)F` (configuration not stated), the EC50 was > 55.7 µM (inactive). For `Cn1nc(-c2ccc(Cl)cc2)c2cc(C(=O)NCC3CCCO3)sc21` (configuration not stated), the EC50 was > 55.7 µM (inactive). Same read-out and setting: under `COc1ccc(Cl)cc1NC(=O)c1oc(C)nc1C` stands > 55.7 µM (inactive); under `CCc1cc2c(NCCC(=O)O)nc(C)nc2s1`, > 55.7 µM (inactive). Regarding `CC1CCN(C(=O)Cn2c(=O)n(CCc3ccccc3)c(=O)c3ccccc32)CC1`, the EC50 is > 55.7 µM (inactive).

Regarding `COc1cc(NC(=O)c2cc(-c3ccco3)on2)c(OC)cc1Cl`, the EC50 is > 55.7 µM (inactive). On the same count and under the same terms, in the case of `COc1ccc(CN2CCN(S(=O)(=O)c3ccc(C)cc3)CC2)cc1Br` it was > 55.7 µM (inactive); in that of `O=C(Cc1cccs1)Nc1ccccn1`, > 55.7 µM (inactive); in that of `COc1ccccc1NC(=O)c1[nH]c(C)c(C(C)=O)c1C`, > 55.7 µM (inactive). Same read-out and setting: under `CCCNC(=O)Cn1c2ccccc2c2nc(=O)cc(C)n21` stands > 55.7 µM (inactive). Turning to `COC(=O)c1n[nH]c2ccccc12`, the EC50 is > 55.7 µM (inactive). On to `COc1ccc(C2c3[nH]c4ccccc4c3CCN2C(=O)c2cc3ncccn3n2)c(F)c1` (configuration not stated), for which the EC50 was > 55.7 µM (inactive). Consider `CN(Cc1ccccc1)Cc1c[nH]c2ccccc12`, for which the EC50 was > 55.7 µM (inactive).

Turning to `CC(=O)Nc1c(Cl)n(C(C)=O)c2ccccc12`, the EC50 was > 55.7 µM (inactive). Regarding `COc1ccc(S(=O)(=O)Nc2nc3ccccc3s2)cc1OC`, the EC50 is > 55.7 µM (inactive).

As for `CCCc1nnc(N2C(=O)c3cccc4cccc(c34)C2=O)s1`, the EC50 is > 55.7 µM (inactive). With `O=c1c2ccccc2ncn1Cc1ccco1`, the EC50 was > 55.7 µM (inactive).

As for `CN(C)C(=O)COC(=O)/C=C/c1ccccc1[N+](=O)[O-]`, the EC50 is > 55.7 µM (inactive). `Cc1c(C#N)c2ccccc2n1CC(=O)O`: the EC50 is > 55.7 µM (inactive). Consider `CCOc1ccccc1C1CC(c2cccs2)=NN1S(C)(=O)=O` (configuration not stated), for which the EC50 was > 55.7 µM (inactive). Still for that read-out and setting: in the case of `Cc1ccc(CC(=O)Nc2nc3c(s2)CCCC3)cc1` it was > 55.7 µM (inactive). In the case of `COc1ccc(-c2nc3scc(-c4ccccc4)n3n2)cc1`, the EC50 is > 55.7 µM (inactive). For the compound `COCCCNC(=O)c1cc2c(-c3ccc(Cl)cc3)nn(C)c2s1`, the EC50 was > 55.7 µM (inactive).

These data come from PubChem BioAssay AID1406 (The Scripps Research Institute Molecular Screening Center, 2008).
